The results in this text go back to EP0386951A2 (ELI LILLY AND COMPANY, priority 1989, dated 1990).

A short description of series [1]: Stability of daptomycin reconstituted to 1 mg/ml in normal saline or 5% dextrose, stored at room and refrigerated temperature. The format is physicochemical. To be noted: solutions of daptomycin and dextrose, 24 h. Here is the method: Next, the solutions were stored at room temperature (approximately 25°C) and refrigerated temperatures and assayed at the 6 h and 24 h timepoints.

Series [2] in a line: Stability of daptomycin reconstituted in buffered diluents and diluted in 5% dextrose (appearance of degradation products). The format is physicochemical. To be noted: dissolved in 5% dextrose solution. From the text: The effectiveness of the buffered diluents in suppressing the appearance of degradation products is shown below in Table 2: Table 2: […]

Turning to daptomycin, the potency loss entry in series [1] (refrigerated temperature) was “about 5%”; in series [1] (room temperature), 17%. Besides, the degradation in series [2] (24 h at 25°C) and in series [2] (7 days at 5°C) was 15-20% in each case.
